Measured values from PubChem BioAssay (NCI).
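Method: 48-hour compound exposure of cells in 96-well plates, five concentrations, linear interpolation of endpoints. At the TGI there is no net growth.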

Legend:
Assay in all cases: NCI anticancer screen, dose series, 48 h
[1] = test system: A498 renal
[2] = test system: CAKI-1 renal
[3] = test system: CCRF-CEM leukemia
[4] = test system: HCC-2998 colon
[5] = test system: HCT-116 colon
[6] = test system: HL-60(TB) leukemia
[7] = test system: HS 578T breast
[8] = test system: NCI-H23 lung
[9] = test system: NCI-H522 lung
[10] = test system: OVCAR-3 ovarian
[11] = test system: OVCAR-5 ovarian
[12] = test system: SK-MEL-2 melanoma
[13] = test system: U251 CNS
[14] = test system: UO-31 renal

Compound | TGI [1] [µM] | TGI [2] [µM] | TGI [3] [µM] | TGI [4] [µM] | TGI [5] [µM] | TGI [6] [µM] | TGI [7] [µM] | TGI [8] [µM] | TGI [9] [µM] | TGI [10] [µM] | TGI [11] [µM] | TGI [12] [µM] | TGI [13] [µM] | TGI [14] [µM]
CC(=O)OCC1OC(n2c3c(c(-c4ccc(Cl)cc4)c(C#N)c2=S)C(=O)CC(C)(C)C3)C(OC(C)=O)C(OC(C)=O)C1OC(C)=O (stereo not given) | 87.9 | > 31.9 | > 100 | 27.9 | > 100 | > 61.1 | 62.4 | > 100 | > 58.1 | > 74 | > 100 | 46.4 | 50.3 | > 78.5
Cc1cc(S(=O)(=O)Nc2nc(N)nc(N3CCOCC3)n2)c(SCC(=O)O)cc1Cl | > 10 | > 10 | > 10 | > 10 | > 10 | > 10 | > 10 | > 10 | > 10 | > 10 | > 10 | > 10 | > 10 | > 10
OCCSCc1cc2c(O)c(c1)Cc1cc(CSCCO)cc(c1O)Cc1cc(CSCCO)cc(c1O)Cc1cc(CSCCO)cc(c1O)C2 | 17.3 | 9.63 | 68.2 | 23.1 | 13 | > 100 | 42.8 | 16.7 | 14.7 | 4.27 | 18.9 | 5.25 | 16.8 | 28.3
Cc1ccc(S(=O)(=O)[N-]C2C(=O)c3ccccc3C(=O)C2[n+]2cccc(C(N)=O)c2)cc1 (stereo not given) | – | > 100 | > 100 | > 100 | 36 | > 100 | > 100 | > 100 | > 100 | > 100 | > 100 | > 100 | > 100 | > 100
CCCCCC(=O)OCC(=O)[C@H]1[C@H](C)C[C@H]2[C@@H]3C[C@H](F)C4=C/C(=N/OC(=O)c5cccc6c(=O)c7ccccc7[nH]c56)C=C[C@]4(C)[C@H]3[C@@H](O)C[C@@]21C | – | > 100 | > 100 | 82.4 | 85.3 | > 100 | > 100 | > 100 | 46 | 65.5 | > 100 | 76.8 | > 100 | 50
CN(C)c1ncnc2c1ncn2C1C=CC(COS(N)(=O)=O)C1 (stereo not given) | > 100 | > 100 | > 100 | > 100 | > 100 | > 100 | > 100 | > 100 | > 100 | > 100 | – | > 100 | > 100 | > 100
CC1(C)OC(=O)C(C)(C)OC1=O | > 100 | > 100 | > 100 | – | > 100 | > 100 | > 100 | > 100 | > 100 | > 100 | > 100 | > 100 | > 100 | > 100
O=c1n(-c2ccccc2)c(=O)n2n1C1CCC2CC1 | > 100 | > 100 | > 100 | – | > 100 | > 100 | > 100 | > 100 | – | > 100 | > 100 | > 100 | > 100 | > 100
COc1ccc(C2SC(N)=Nc3c2c(C)nn3C(=O)c2ccc(Cl)cc2)cc1 (stereo not given) | – | > 10 | > 10 | > 10 | > 10 | > 10 | > 10 | > 10 | > 10 | > 10 | > 10 | > 10 | > 10 | –
CC1(C)[C@@H]2C[C@H]1C(Cc1ccc(C[C@H]3c4cc(-c5ccccn5)ncc4[C@H]4C[C@@H]3C4(C)C)cc1)c1cc(-c3ccccn3)ncc12 (stereo not given in full) | 7.99 | > 100 | – | 88.2 | 18.3 | 2.28 | > 100 | 37 | > 100 | 18.8 | > 100 | > 100 | 19.7 | 4.91
COc1ccc(-n2c3c(c4cc(O)ccc42)C(=O)c2ccccc2C3=O)cc1 | 22.5 | > 100 | – | – | 1.25 | > 100 | > 100 | > 100 | > 100 | 27.2 | > 100 | > 100 | – | > 100
CC1=CC2(O)OC3(CC2=C(C)C)C(C)CCC13 (stereo not given) | > 100 | > 100 | > 100 | – | > 100 | > 100 | > 100 | > 100 | > 100 | > 100 | > 100 | > 100 | > 100 | > 100
Cn1c2ccccc2c(=O)c2c(O)cc3c(c21)C=CC1(CCCC1)O3 | > 100 | > 100 | > 100 | > 100 | > 100 | > 100 | > 100 | > 100 | > 100 | > 100 | > 100 | > 100 | > 100 | –
CC(=O)O[C@H]1C(=O)[C@@]2(C)[C@H]([C@H](OC(=O)c3ccc([N+](=O)[O-])cc3)[C@]3(O)C[C@H](OC(=O)[C@H](O)[C@@H](NC(=O)c4ccccc4)c4ccccc4)C(C)=C1C3(C)C)[C@]1(OC(C)=O)CO[C@@H]1C[C@@H]2O | > 25 | > 25 | > 25 | > 25 | > 25 | > 25 | > 25 | > 25 | > 25 | – | > 25 | – | > 25 | > 25
CCOC(=O)c1cc(C2CCN(CC(C)CC)C2=S)c(C(=O)/C=C(/C)N)[nH]1 (stereo not given) | > 50 | > 50 | > 50 | – | > 50 | > 50 | > 50 | > 50 | – | > 50 | > 50 | > 50 | > 50 | > 50
COc1ccc(CNc2nc(NCc3ccc(OC)cc3)nc(NC(C)C)n2)cc1 | 47.1 | 66.4 | – | 64.8 | 12.4 | 17.7 | > 100 | 30.8 | 10.6 | 10.3 | 81.9 | 44.2 | > 100 | > 100
